Data as given in patent publication US8785436B2, “1,3-oxazines as BACE 1 and/or BACE2 inhibitors” (Hoffmann-La Roche Inc., priority 2011, dated 2014).
Where a name gives a salt, the structure may show the parent alone.

Legend:
Type in all cases: cell-based
[1] = molecular target: T1, BACE1 (Homo sapiens, UniProt P56817); assay: Cellular Aβ-lowering assay b) (Abeta 40 AlphaLISA, HEK293 APP cells); conditions: 18-20 hrs incubation, read-out: BACE1 cell act. Aβ40 IC50
T1 construct: Human HEK293 cells which are stably transfected with a vector expressing a cDNA of the human APP wt gene (APP695); endogenous in cells; host or cells: HEK293 cells stably expressing human APP695 wt
Description: (§1) Cellular Aβ-Lowering Assay:
b) Alternatively, the Abeta 40 AlphaLISA Assay can be used. The HEK293 APP cells were seeded in 96 well Microtiter plates in cell culture medium (Iscove's, plus 10% (v/v) fetal bovine serum, penicillin/streptomycin) to about 80% confluency and the compounds were added at a 3× concentration in 1/3 volume of culture medium (final DMSO concentration was kept at 1% v/v). After 18-20 hrs incubation at 37° C. and 5% CO2 in a humidified incubator, the culture supernatants were harvested for the determination of Aβ 40 concentrations using Perkin-Elmer Human Amyloid beta 1-40 (high specificity) Kit (Cat# AL275C).
In a Perkin-Elmer White Optiplate-384 (Cat#6007290), 2 ul culture supernatants were combined with 2 μl of a 10× AlphaLISA Anti-hAβ Acceptor beads+Biotinylated Antibody Anti-Aβ 1-40 Mix (50 μg/mL/5 nM). After 1 hour room temperature incubation, 16 μl of a 1.25× preparation of Streptavidin (SA) Donor beads (25 μg/mL) were added and incubated for 30 minutes in the Dark. Light Emission at 615 nm was then recorded using EnVision-Alpha Reader. Levels of Aβ 40 in the culture supernatants were calculated as percentage of maximum signal (cells treated with 1% DMSO without inhibitor). The IC50 values were calculated using the Excel XLfit software.

[2] = molecular target: T1, BACE1; assay: Cellular Aβ-lowering assay a) (Aβ40 ELISA, HEK293 APP cells); conditions: cellular assay a): HEK293 APP695 cells, 18-20 hrs incubation, read-out: BACE1 cell act. Aβ40 IC50
Description: as §1
a) Human HEK293 cells which are stably transfected with a vector expressing a cDNA of the human APP wt gene (APP695) were used to assess the potency of the compounds in a cellular assay. The cells were seeded in 96-well microtiter plates in cell culture medium (Iscove, plus 10% (v/v) fetal bovine serum, glutamine, penicillin/streptomycin) to about 80% confluence and the compounds were added at a 10× concentration in 1/10 volume of medium without FCS containing 8% DMSO (final concentration of DMSO was kept at 0.8% v/v). After 18-20 hrs incubation at 37° C. and 5% CO2 in a humidified incubator the culture supernatant was harvested for the determination of Aβ40 concentrations. 96 well ELISA plates (e.g., Nunc MaxiSorb) were coated with monoclonal antibody which specifically recognize the C-terminal end of Aβ40 (Brockhaus et al., NeuroReport 9, 1481-1486; 1998). After blocking of non-specific binding sites with e.g. 1% BSA and washing, the culture supernatants were added in suitable dilutions together with a horseradish peroxidase-coupled Aβ detection antibody (e.g., antibody 4G8, Senetek, Maryland Heights, Mo.) and incubated for 5 to 7 hrs. Subsequently the wells of the microtiter plate were washed extensively with Tris-buffered saline containing 0.05% Tween 20 and the assay was developed with tetramethylbenzidine/H2O2 in citric acid buffer. After stopping the reaction with one volume 1 NH2SO4 the reaction was measured in an ELISA reader at 450 nm wavelength. The concentrations of Aβ in the culture supernatants were calculated from a standard curve obtained with known amounts of pure Aβ peptide.

[3] = molecular target: T2, BACE2 (Rattus norvegicus, UniProt Q6IE75); assay: BACE inhibition by measuring cellular TMEM27 cleavage (INS-TMEM27 cells, ELISA); conditions: INS-TMEM27 (Ins1e rat) cells, shed human TMEM27 by ELISA; read-out: BACE2 cell act. IC50
T2 construct: endogenous cellular BACE2 in the Ins1e rat cell line; endogenous in cells; host or cells: INS-TMEM27 (INS1e-derived rat cell line with TetOn-inducible full-length hTMEM27)
T2 sequence (Q6IE75 63-514): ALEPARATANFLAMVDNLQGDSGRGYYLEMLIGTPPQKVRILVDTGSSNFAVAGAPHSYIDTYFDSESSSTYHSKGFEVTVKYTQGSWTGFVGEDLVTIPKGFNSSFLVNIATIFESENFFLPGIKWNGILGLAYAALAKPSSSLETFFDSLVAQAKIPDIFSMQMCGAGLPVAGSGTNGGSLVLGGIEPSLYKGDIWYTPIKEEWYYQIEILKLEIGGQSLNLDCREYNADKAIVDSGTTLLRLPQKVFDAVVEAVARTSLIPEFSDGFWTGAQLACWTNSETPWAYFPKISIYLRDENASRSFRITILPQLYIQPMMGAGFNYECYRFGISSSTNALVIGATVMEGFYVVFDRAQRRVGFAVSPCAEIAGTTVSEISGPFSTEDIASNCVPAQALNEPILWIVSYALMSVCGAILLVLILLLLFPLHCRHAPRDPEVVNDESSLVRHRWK
Excerpt: Assay for BACE Inhibition by Measuring Cellular TMEM27 Cleavage:
The assay uses the principle of inhibition of human TMEM27 cleavage by endogenous cellular BACE2 in the Ins1e rat cell line and shedding from the cell surface into the culture medium, followed by detection in an ELISA assay Inhibition of BACE2 prevents the cleavage and shedding in a dose-dependent manner.
The stable cell line “INS-TMEM27” represents an INS1e-derived cell line with inducible expression (using the TetOn system) of full-length hTMEM27 in a doxycycline-dependent manner. The cells are cultured throughout the experiment in RPMI1640+Glutamax (Invitrogen) Penicillin/Streptomycin, 10% Fetal bovine serum, […], […], 100 micrograms/ml G418 and 100 microgram/ml hygromycin and are grown inadherent culture at 37° C. in a standard CO2 cell culture incubator.
INS-TMEM27 cells are seeded in 96-well plates. After 2 days in culture, BACE2 inhibitor is added in a range of concentrations as required by the assay and after a further two hours, doxycycline is added to a final concentration of 500 ng/ml. The cells are incubated for a further 46 hours and the supernatant harvested for detection of shed TMEM27.
An ELISA assay (using a pair of mouse anti-human-TMEM27 antibodies, raised against the extracellular domain of TMEM27) is used for detection of TMEM27 in the culture medium. An EC50 for BACE2 inhibition is calculated using the ELISA readout for each inhibitor concentration with standard curve-fitting software such as XLFit for the Excel spreadsheet program.

T1 sequence (P56817 46-501): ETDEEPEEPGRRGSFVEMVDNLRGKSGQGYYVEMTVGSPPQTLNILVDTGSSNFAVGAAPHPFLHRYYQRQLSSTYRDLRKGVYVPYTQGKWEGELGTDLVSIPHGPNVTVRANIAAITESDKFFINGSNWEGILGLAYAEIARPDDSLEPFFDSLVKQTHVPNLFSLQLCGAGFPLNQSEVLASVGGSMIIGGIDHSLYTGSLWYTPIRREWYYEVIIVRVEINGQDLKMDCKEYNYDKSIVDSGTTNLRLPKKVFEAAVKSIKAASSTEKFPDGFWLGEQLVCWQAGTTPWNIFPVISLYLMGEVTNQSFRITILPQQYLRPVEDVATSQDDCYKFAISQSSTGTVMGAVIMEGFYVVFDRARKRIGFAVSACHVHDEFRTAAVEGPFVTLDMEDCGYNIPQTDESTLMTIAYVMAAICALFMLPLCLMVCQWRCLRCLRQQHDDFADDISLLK

| Structure (SMILES) | IC50 [1] | IC50 [2] | IC50 [3] |
| --- | --- | --- | --- |
| C[C@]1(C2CC2C(=O)Nc2cccc3cc(Cl)cnc23)N=C(N)OCC1(F)F (stereo in doubt) [Example 62, (1S,2S)-rel-2-((R)-2-Amino-5,5-difluoro-4-methyl-5,6-dihydro-4H-[1,3]oxazin-4-yl)-cyclopropanecarboxylic acid(3-chloro-quinolin-8-yl)-amide] | 420 nM | – | – |
| C[C@]1(c2cccc(OCC3CC3(F)F)c2)N=C(N)OCC1(F)F (mixture of isomers) [Example 57, (R)-4-[5-((RS)-2,2-Difluoro-cyclopropylmethoxy)-phenyl]-5,5-difluoro-4-methyl-5,6-dihydro-4H-[1,3]oxazin-2-ylamine] | 3700 nM | – | – |
| C[C@]1(c2cc(-c3nc4ccc(Cl)cc4o3)c(F)cc2F)N=C(N)OCC1(F)F [Example 15, (R)-4-[5-(6-Chloro-benzooxazol-2-yl)-2,4-difluoro-phenyl]-5,5-difluoro-4-methyl-5,6-dihydro-4H-[1,3]oxazin-2-ylamine Hydrochloride] | 1280 nM | – | – |
| C#Cc1cccc(-n2cc([C@@]3(C)N=C(N)OCC3(F)F)cn2)c1 [Example 61, (R)-4-[1-(3-Ethynyl-phenyl)-1H-pyrazol-4-yl]-5,5-difluoro-4-methyl-5,6-dihydro-4H-[1,3]oxazin-2-ylamine] | 720 nM | – | – |
| CC1(C)OC(N)=N[C@](C)(c2cc(-c3cc(C#N)ccc3Cl)ccc2F)C1(F)F [Example 52, 3′-((R)-2-Amino-5,5-difluoro-4,6,6-trimethyl-5,6-dihydro-4H-[1,3]oxazin-4-yl)-6-chloro-4′-fluoro-biphenyl-3-carbonitrile] | 2880 nM | – | – |
| CC1(C)OC(N)=N[C@](C)(c2cc(NC3CCC(c4ccccc4)C3)ccc2F)C1(F)F (mixture of isomers) [Example 49, (R)-5,5-Difluoro-4-[2-fluoro-5-((1RS,3RS)-3-phenyl-cyclopentylamino)-phenyl]-4,6,6-trimethyl-5,6-dihydro-4H-[1,3]oxazin-2-ylamine] | 1210 nM | – | – |
| C[C@]1(c2cnn(-c3cccc(Br)c3)c2)N=C(N)OCC1(F)F [Intermediate K7.1, (R)-4-[1-(3-bromo-phenyl)-1H-pyrazol-4-yl]-5,5-difluoro-4-methyl-5,6-dihydro-4H-[1,3]oxazin-2-ylamine] | 1440 nM | – | – |
| C[C@]1([C@@H]2C[C@H]2C(=O)Nc2csc3cc(C#N)cnc23)N=C(N)OCC1(F)F [Example 65, (1R,2R)-2-((R)-2-Amino-5,5-difluoro-4-methyl-5,6-dihydro-4H-[1,3]oxazin-4-yl)-cyclopropanecarboxylic acid(6-cyano-thieno[3,2-b]pyridin-3-yl)-amide] | 180 nM | – | – |
| C[C@]1(c2cc(NCc3cc(F)cc(F)c3)ccc2F)N=C(N)OC[C@@H]1F [Example 56, (4R,5R)-4-[5-(3,5-Difluoro-benzylamino)-2-fluoro-phenyl]-5-fluoro-4-methyl-5,6-dihydro-4H-[1,3]oxazin-2-ylamine] | 800 nM | – | – |
| C[C@]1(c2cccc(OCC3CC3)c2)N=C(N)OCC1(F)F [Example 59, (R)-4-(3-Cyclopropylmethoxy-phenyl)-5,5-difluoro-4-methyl-5,6-dihydro-4H-[1,3]oxazin-2-ylamine] | 3120 nM | – | – |
| C[C@]1(c2cnn(-c3cccc(C#N)c3)c2)N=C(N)OCC1(F)F [Example 60, 3-[4-((R)-2-Amino-5,5-difluoro-4-methyl-5,6-dihydro-4H-[1,3]oxazin-4-yl)-pyrazol-1-yl]-benzonitrile] | 4620 nM | – | – |
| C[C@]1(c2cc(-c3cncc(Cl)c3)c(F)cc2F)N=C(N)OCC1(F)F [Example 32, (R)-4-[5-(5-Chloro-pyridin-3-yl)-2,4-difluoro-phenyl]-5,5-difluoro-4-methyl-5,6-dihydro-4H-[1,3]oxazin-2-ylamine] | 880 nM | – | – |
| C[C@]1(c2cccc(OCCC(F)(F)F)c2)N=C(N)OCC1(F)F [Example 58, (R)-5,5-Difluoro-4-methyl-4-[3-(3,3,3-trifluoro-propoxy)-phenyl]-5,6-dihydro-4H-[1,3]oxazin-2-ylamine] | 2010 nM | – | – |
| C[C@]1(F)COC(N)=N[C@]1(C)c1cc(NCc2nn(C(F)F)cc2Cl)ccc1F [Example 12, (4R,5R)-4-{5-[(4-Chloro-1-difluoromethyl-1H-pyrazol-3-ylmethyl)-amino]-2-fluoro-phenyl}-5-fluoro-4,5-dimethyl-5,6-dihydro-4H-[1,3]oxazin-2-ylamine] | – | 39 nM | 588 nM |
| CC1(C)OC(N)=N[C@](C)(c2cc(-c3cc(Cl)cc(Cl)c3)ccc2F)C1(F)F [Example 51, (R)-4-(3′,5′-Dichloro-4-fluoro-biphenyl-3-yl)-5,5-difluoro-4,6,6-trimethyl-5,6-dihydro-4H-[1,3]oxazin-2-ylamine] | – | 14500 nM | 3350 nM |
| C[C@]1(c2cc(Nc3ccccc3OC(F)F)ccc2F)N=C(N)OC[C@@H]1F [Example 4, (4R,5R)-4-[5-(2-Difluoromethoxy-phenylamino)-2-fluoro-phenyl]-5-fluoro-4-methyl-5,6-dihydro-4H-[1,3]oxazin-2-ylamine] | – | 370 nM | 1810 nM |
| Cc1ccc(Cc2cc3cc(F)c([C@@]4(C)N=C(N)OCC4(F)F)cc3[nH]2)cc1 [Example 40, (R)-5,5-Difluoro-4-[5-fluoro-2-(4-methyl-benzyl)-3H-indol-6-yl]-4-methyl-5,6-dihydro-4H-[1,3]oxazin-2-ylamine] | – | 6020 nM | 10900 nM |
| C[C@]1(c2cc(NCc3cccs3)ccc2F)N=C(N)OC[C@@H]1F [Example 5, (4R,5R)-5-Fluoro-4-{2-fluoro-5-[(thiophen-2-ylmethyl)-amino]-phenyl}-4-methyl-5,6-dihydro-4H-[1,3]oxazin-2-ylamine] | – | 540 nM | 1130 nM |
| CC1(C)OC(N)=N[C@](C)(c2cc(Nc3ccccc3C#N)ccc2F)C1(F)F [Example 43, 2-[3-((R)-2-Amino-5,5-difluoro-4,6,6-trimethyl-5,6-dihydro-4H-[1,3]oxazin-4-yl)-4-fluoro-phenylamino]-benzonitrile] | – | 1650 nM | 4140 nM |
